Each molecule was assayed against SMYD3 (Homo sapiens (Human), UniProt Q9H7B4) (assay: SMYD3 biochemical assay (SPA, 3H-SAM methylation of MEKK2 protein substrate)). Conditions: read-out: SMYD3 Biochem IC50 (μM)*.
Description: S-adenosylmethionine (SAM), S-adenosylhomocysteine (SAH), Tris, Tween20, dimethylsulfoxide (DMSO), bovine skin gelatin (BSG), and Tris(2-carboxyethyl)phosphine hydrochloride solution (TCEP) were purchased from Sigma-Aldrich at the highest level of purity possible. ^3H-SAM was purchase from American Radiolabeled Chemicals with a specific activity of 80 Ci/mmol. 384-well opaque white OptiPlates and SPA beads (Perkin Elmer, catalog # RPNQ0013) were purchased from PerkinElmer.
N-terminally GST-tagged MEKK2 (MAP3K2) protein corresponding to reference sequence AAF63496.3 was purchased from Life Technologies (catalog # PV4010). This protein was expressed in High Five insect cells and purified to >85% purity. Protein identity was confirmed by MS/MS analysis after proteolytic digestion. The protein sequence used was:
Full-length human SMYD3 isoform 1 (BAB86333) was inserted into a modified pET21b plasmid containing a His6 tag and TEV and SUMO cleavage sites.
E. coli (BL21 codonplus RIL strain, Stratagene) were transformed with plasmid pEPZ553 by mixing competent cells and plasmid DNA and incubating on ice for 30 minutes followed by heat shock at 42° C. for 1 minute and cooling on ice for 2 minutes. Transformed cells were grown and selected on LB agar with 100 μg/mL ampicillin and 17 μg/mL chloramphenicol at 37° C. overnight. A single clone was used to inoculate 200 mL of LB medium with 100 μg/mL ampicillin and 17 μg/mL chloramphenicol and incubated at 37° C. on an orbital shaker at 180 rpm. Once in log growth, the culture was diluted 1:100 into 2 L of LB medium and grown until OD600 was about 0.3 after which the culture was incubated at 15° C. and 160 rpm. Once OD600 reached about 0.4, IPTG was added to a final concentration of 0.1 mM and the cells were grown overnight at 15° C. and 160 rpm. Cells were harvested by centrifugation at 8000 rpm, for 4 minutes at 4° C. and stored at −80° C. for purification.
The column was washed with Buffer B (Buffer A plus 20 mM imidazole) and His-tagged SMYD3 was eluted with Buffer C (Buffer A plus 300 mM imidazole). The His tag, TEV and SUMO cleavage sites were removed generating native SMYD3 by addition of ULP1 protein at a ratio of 1:200 (ULP1:SMYD3). Imidazole was removed by dialysis overnight in Buffer A. The dialyzed solution was applied to a second Nickel column and the native SMYD3 protein was collected from the column flow-through. The flow-through was dialyzed in Buffer D (25 mM Tris, 5% glycerol, 5 mM β-mercaptoethanol, 50 mM NaCl, pH7.8) and ULP1 was removed using a Q sepharose fast flow column.
General Procedure for SMYD3 Enzyme Assays on MEKK2 Protein Substrate
The assays were all performed in a buffer consisting of 25 mM Tris-Cl pH 8.0, 1 mM TCEP, 0.005% BSG, and 0.005% Tween 20, prepared on the day of use. […] DMSO (1 ul) was added to Columns 11, 12, 23, 24, rows A-H for the maximum signal control and 1 ul of SAH, a known product and inhibitor of SMYD3, was added to columns 11, 12, 23, 24, rows I-P for the minimum signal control. A cocktail (40 ul) containing the SMYD3 enzyme was added by Multidrop Combi (Thermo-Fisher). The compounds were allowed to incubate with SMYD3 for 30 min at room temperature, then a cocktail (10 ul) containing SAM and MEKK2 was added to initiate the reaction (final volume=51 ul). […] The assays were stopped by the addition of non-radiolabeled SAM (10 ul) to a final concentration of 100 uM, which dilutes the ^3H-SAM to a level where its incorporation into MEKK2 is no longer detectable. Radiolabeled MEKK2 was detected using a scintillation proximity assay (SPA). 10 uL of a 10 mg/mL solution of SPA beads in 0.5 M citric acid was added and the plates centrifuged at 600 rpm for 1 min to precipitate the radiolabeled MEKK2 onto the SPA beads. The plates were then read in a PerkinElmer TopCount plate reader to measure the quantity of ^3H-labeled MEKK2 as disintegrations per minute (dpm) or alternatively, referred to as counts per minute (cpm).

Question: Which IC50 does the source give for `NCCC(=O)NC[C@@H](Cc1ccc(O)c(I)c1)C(=O)N1CCC(NC(=O)c2cc(C3CC3)on2)CC1` [compound 34, (R)-N-(1-(3-(3-aminopropanamido)-2-(4-hydroxy-3-iodobenzyl)propanoyl)piperidin-4-yl)-5-cyclopropylisoxazole-3-carboxamide] here?
Answer: 1.64 µM

Question: How did the IC50 turn out when `NCCC(=O)NC[C@H](Cc1ccc(O)c(I)c1)C(=O)N1CCC(NC(=O)c2cc(C3CC3)on2)CC1` [compound 35, (S)-N-(1-(3-(3-aminopropanamido)-2-(4-hydroxy-3-iodobenzyl)propanoyl)piperidin-4-yl)-5-cyclopropylisoxazole-3-carboxamide] was run?
Answer: 0.117 µM

Question: How did the IC50 turn out when `NCC(=O)NC[C@@H](Cc1ccc(O)c(I)c1)C(=O)N1CCC(NC(=O)c2cc(C3CC3)on2)CC1` [compound 36, (R)-N-(1-(3-(2-aminoacetamido)-2-(4-hydroxy-3-iodobenzyl)propanoyl)piperidin-4-yl)-5-cyclopropylisoxazole-3-carboxamide] was run?
Answer: 9.41 µM

Question: For `NCC(=O)NC[C@H](Cc1ccc(O)c(I)c1)C(=O)N1CCC(NC(=O)c2cc(C3CC3)on2)CC1` [compound 37, (S)-N-(1-(3-(2-aminoacetamido)-2-(4-hydroxy-3-iodobenzyl)propanoyl)piperidin-4-yl)-5-cyclopropylisoxazole-3-carboxamide], which IC50 is on record?
Answer: 0.623 µM

Question: With `Cc1ccc(C[C@H](CN)C(=O)N2CCC(NC(=O)c3cc(C4CC4)on3)CC2)cc1O` [compound 38, (R)-N-(1-(3-amino-2-(3-hydroxy-4-methylbenzyl)propanoyl)piperidin-4-yl)-5-cyclopropylisoxazole-3-carboxamide] as the molecule, how does the IC50 read?
Answer: 0.518 µM

Question: Which IC50 does the source give for `Cc1ccc(C[C@@H](CN)C(=O)N2CCC(NC(=O)c3cc(C4CC4)on3)CC2)cc1O` [compound 39, (S)-N-(1-(3-amino-2-(3-hydroxy-4-methylbenzyl)propanoyl)piperidin-4-yl)-5-cyclopropylisoxazole-3-carboxamide] here?
Answer: 14 µM

Question: Which IC50 does the source give for `NCCCN1CCC(NC(=O)c2cc(C3CC3)on2)CC1` [compound 40, N-(1-(3-aminopropyl)piperidin-4-yl)-5-cyclopropylisoxazole-3-carboxamide] here?
Answer: 3.16 µM

Question: With `C[C@@H](N)C(=O)NC[C@@H](Cc1ccc(O)c(I)c1)C(=O)N1CCC(NC(=O)c2cc(C3CC3)on2)CC1` [compound 42, N-(1-((R)-3-((R)-2-aminopropanamido)-2-(4-hydroxy-3-iodobenzyl)propanoyl)piperidin-4-yl)-5-cyclopropylisoxazole-3-carboxamide] as the molecule, how does the IC50 read?
Answer: 8.39 µM

Question: With `C[C@@H](N)C(=O)NC[C@H](Cc1ccc(O)c(I)c1)C(=O)N1CCC(NC(=O)c2cc(C3CC3)on2)CC1` [compound 43, N-(1-((S)-3-((R)-2-aminopropanamido)-2-(4-hydroxy-3-iodobenzyl)propanoyl)piperidin-4-yl)-5-cyclopropylisoxazole-3-carboxamide] as the molecule, how does the IC50 read?
Answer: 1.23 µM

Question: For `C[C@@H](N)CC(=O)NC[C@@H](Cc1ccc(O)c(I)c1)C(=O)N1CCC(NC(=O)c2cc(C3CC3)on2)CC1` [compound 44, N-(1-((R)-3-((R)-3-aminobutanamido)-2-(4-hydroxy-3-iodobenzyl)propanoyl)piperidin-4-yl)-5-cyclopropylisoxazole-3-carboxamide], which IC50 is on record?
Answer: 13.8 µM

Question: Which IC50 does the source give for `C[C@@H](N)CC(=O)NC[C@H](Cc1ccc(O)c(I)c1)C(=O)N1CCC(NC(=O)c2cc(C3CC3)on2)CC1` [compound 45, N-(1-((S)-3-((R)-3-aminobutanamido)-2-(4-hydroxy-3-iodobenzyl)propanoyl)piperidin-4-yl)-5-cyclopropylisoxazole-3-carboxamide] here?
Answer: 0.479 µM

Question: For `C[C@H]1CN(C(=O)[C@H](N)Cc2ccc(O)cc2)CCC1NC(=O)c1cc(C2CC2)on1` (stereo partly drawn) [compound 47, N-((3S)-1-(D-tyrosyl)-3-methylpiperidin-4-yl)-5-cyclopropylisoxazole-3-carboxamide], which IC50 is on record?
Answer: 14.9 µM

Question: How did the IC50 turn out when `C[C@@H]1CN(C(=O)[C@H](N)Cc2ccc(O)cc2)CCC1NC(=O)c1cc(C2CC2)on1` (stereo partly drawn) [compound 48, N-((3R)-1-(D-tyrosyl)-3-methylpiperidin-4-yl)-5-cyclopropylisoxazole-3-carboxamide] was run?
Answer: 14.9 µM

Question: Which IC50 does the source give for `C[C@H]1CN(C(=O)CN)CCC1NC(=O)c1cc(C2CC2)on1` (stereo partly drawn) [compound 49, 5-cyclopropyl-N-((3S)-1-glycyl-3-methylpiperidin-4-yl)isoxazole-3-carboxamide] here?
Answer: 37.2 µM

Question: Which IC50 does the source give for `C[C@@H]1CN(C(=O)CN)CC[C@H]1NC(=O)c1cc(C2CC2)on1` [compound 50, 5-cyclopropyl-N-((3R,4R)-1-glycyl-3-methylpiperidin-4-yl)isoxazole-3-carboxamide] here?
Answer: 9.72 µM

Question: `C[C@@H]1CN(C(=O)CN)CC[C@@H]1NC(=O)c1cc(C2CC2)on1` [compound 51, 5-cyclopropyl-N-((3R,4S)-1-glycyl-3-methylpiperidin-4-yl)isoxazole-3-carboxamide] was tested. Which IC50 did it give?
Answer: 12.7 µM

Question: Which IC50 does the source give for `C[C@H]1CC(NC(=O)c2cc(C3CC3)on2)CCN1C(=O)CN` (stereo partly drawn) [compound 52, 5-cyclopropyl-N-((2S)-1-glycyl-2-methylpiperidin-4-yl)isoxazole-3-carboxamide] here?
Answer: 32.5 µM

Question: Which IC50 does the source give for `C[C@@H]1C[C@@H](NC(=O)c2cc(C3CC3)on2)CCN1C(=O)CC1CCNCC1` [compound 53, 5-cyclopropyl-N-((2R,4S)-2-methyl-1-(2-(piperidin-4-yl)acetyl)piperidin-4-yl)isoxazole-3-carboxamide] here?
Answer: 0.862 µM

Question: `C[C@H]1C[C@@H](NC(=O)c2cc(C3CC3)on2)CCN1C(=O)CC1CCNCC1` [compound 54, 5-cyclopropyl-N-((2S,4S)-2-methyl-1-(2-(piperidin-4-yl)acetyl)piperidin-4-yl)isoxazole-3-carboxamide] was tested. Which IC50 did it give?
Answer: 2.08 µM

Question: For `C[C@@H]1C[C@H](NC(=O)c2cc(C3CC3)on2)CCN1C(=O)CC1CCNCC1` [compound 55, 5-cyclopropyl-N-((2R,4R)-2-methyl-1-(2-(piperidin-4-yl)acetyl)piperidin-4-yl)isoxazole-3-carboxamide], which IC50 is on record?
Answer: 0.681 µM

Question: With `C[C@@H]1C[C@@H](NC(=O)c2cc(C3CC3)on2)CCN1C(=O)[C@H]1CC[C@H](N)CC1` [compound 58, N-((2R,4S)-1-((1r,4R)-4-aminocyclohexane-1-carbonyl)-2-methylpiperidin-4-yl)-5-cyclopropylisoxazole-3-carboxamide] as the molecule, how does the IC50 read?
Answer: 1.4 µM

Question: `C[C@H]1C[C@@H](NC(=O)c2cc(C3CC3)on2)CCN1C(=O)[C@H]1CC[C@H](N)CC1` [compound 59, N-((2S,4S)-1-((1r,4S)-4-aminocyclohexane-1-carbonyl)-2-methylpiperidin-4-yl)-5-cyclopropylisoxazole-3-carboxamide] was tested. Which IC50 did it give?
Answer: 7.97 µM

Question: Which IC50 does the source give for `C[C@H]1C[C@H](NC(=O)c2cc(C3CC3)on2)CCN1C(=O)[C@H]1CC[C@H](N)CC1` [compound 60, N-((2S,4R)-1-((1r,4S)-4-aminocyclohexane-1-carbonyl)-2-methylpiperidin-4-yl)-5-cyclopropylisoxazole-3-carboxamide] here?
Answer: 1.41 µM

Question: `C[C@H](N)C(=O)NC[C@@H](Cc1ccc(O)c(I)c1)C(=O)N1CCC(NC(=O)c2cc(C3CC3)on2)CC1` [compound 61, N-(1-((R)-3-((S)-2-aminopropanamido)-2-(4-hydroxy-3-iodobenzyl)propanoyl)piperidin-4-yl)-5-cyclopropylisoxazole-3-carboxamide] was tested. Which IC50 did it give?
Answer: 15.3 µM

Question: How did the IC50 turn out when `C[C@H](N)C(=O)NC[C@H](Cc1ccc(O)c(I)c1)C(=O)N1CCC(NC(=O)c2cc(C3CC3)on2)CC1` [compound 62, N-(1-((S)-3-((S)-2-aminopropanamido)-2-(4-hydroxy-3-iodobenzyl)propanoyl)piperidin-4-yl)-5-cyclopropylisoxazole-3-carboxamide] was run?
Answer: 1.33 µM

Source: patent publication US10577363B2, “Substituted piperidine compounds” (EPIZYME, INC., priority 2014, dated 2020)
